Experimental data taken from PubChem BioAssay AID651649 (Sanford-Burnham Center for Chemical Genomics, 2012).
pIC50: −log10 of the molar value. Activity calls are given as the source filed them.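 How the source made its calls: active means IC50 below 20 µM; inactive means the rest.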

Target: CRF-binding protein / CRF-R2 receptor complex (human)
Test: CRF-BP/CRF-R2 complex antagonists, SAR follow-up, cell-based, 384-well, HEK293, calcium flux, powder samples (AID 651649)
Details: CRF-induced calcium flux, Fluo4

| pIC50 | IC50 | Structure (SMILES) |
| --- | --- | --- |
| 5.87 |  | NC(=O)c1ccc(NCc2ccco2)c([N+](=O)[O-])c1 |
| 6.20 |  | Brc1ccccc1-c1nnc(CSc2nnnn2-c2ccccc2)o1 |
|  | > 40000 nM (inactive) | Cc1ccccc1-c1cc2nc(-c3ccc([N+](=O)[O-])cc3)cc(=O)n2[nH]1 |
| 5.30 |  | COC(=O)c1ccc(CSc2nc3ccccc3c(=O)n2-c2ccccc2)o1 |
| 5.98 |  | COc1cccc(NC(=S)NC(Cc2ccccc2)c2ccccc2)c1 (stereo not drawn) |
| 5.60 |  | CC(C)(C)c1cc(C(=O)NNC(=O)Nc2cccc(Cl)c2)n(Cc2ccccc2)n1 |
|  | > 20000 nM (inactive) | COc1ccc(C(=O)COC(=O)c2cccnc2SC)cc1 |
| 5.93 |  | CCOc1ccc(Cl)cc1S(=O)(=O)n1nnc2ccccc21 |
| 6.20 |  | O=c1oc2ccc3ccccc3c2cc1-c1nnc(-c2ccccc2)o1 |
|  | > 40000 nM (inactive) | Cc1ccc(NC(=O)c2ccccc2NS(=O)(=O)c2ccc(F)cc2)cc1S(=O)(=O)N1CCCCC1 |
| > 6.90 |  | COc1cccc2cc(-c3nnc(-c4ccccc4)o3)c(=O)oc12 |
| 5.06 |  | Cc1ccc2cccc(Oc3ncnc4scc(-c5ccccc5)c34)c2n1 |
| 6.67 |  | COc1ccc([N+](=O)[O-])cc1NC(=O)c1ccccc1SC |
|  | > 40000 nM (inactive) | Cc1ccccc1Cn1ccc(NC(=O)c2cc3ncc(Br)cn3n2)n1 |
|  | > 40000 nM (inactive) | COc1ccc(Oc2ccc(C(F)(F)F)cc2NC(=O)c2ccc(OC)cc2)cc1 |
| 5.81 |  | COc1cccc(C2CC(c3cccs3)=NN2C(=O)c2ccco2)c1O (stereo not drawn) |
| 5.12 |  | O=C(COc1ccc2ccccc2c1)Nc1cccc(C(=O)Nc2ccccc2C(=O)O)c1 |
| 5.22 |  | Cc1ccc(-n2nnnc2SCc2nnc(-c3ccccc3Br)o2)c(C)c1 |
|  | > 40000 nM (inactive) | Cn1c(COc2ccccc2)nnc1SCC(=O)c1cccc([N+](=O)[O-])c1 |
| 5.62 |  | CC1CC(C)CN(C(=O)CSc2nc(Cc3cccs3)nc3ccccc23)C1 (stereo not drawn) |
| 5.34 |  | O=C(O)c1ccc(COc2ccccc2C=C2C(=O)c3ccccc3C2=O)cc1 |
|  | inactive | Cc1nc2nc(SCC(=O)c3cccc([N+](=O)[O-])c3)[nH]c2cc1Br |
|  | > 40000 nM (inactive) | COCCNc1nc2c(S(=O)(=O)c3cc(C)ccc3C)nnn2c2ccccc12 |
| 5.32 |  | C=CCOc1ccc(/C=C2\SC(=S)N(NS(=O)(=O)c3ccccc3)C2=O)cc1 |
| 5.56 |  | CC(=O)NC(Cc1ccc(C)cc1)C(=O)NC1CCN(c2ncccc2[N+](=O)[O-])CC1 (stereo not drawn) |
| 5.23 |  | O=C(COc1cc(Cl)ccc1Cl)N1CCNC1=O |
| 6.02 |  | CC(C)Cn1c(SCC(=O)N2CCc3ccccc3C2)nc2cc(Cl)ccc2c1=O |
| 5.49 |  | Cc1ccc(S(=O)(=O)N(CC(=O)Nc2ccccc2C(=O)O)c2ccc(Cl)cc2)cc1 |
